Results reported in patent publication US20200261534A1, “NEW TREATMENTS OF MULTIPLE MYELOMA” (priority 2017, published 2020).

How the values were obtained:
MM1S cells = test: Subcutaneous xenograft model, in vivo synergy of S09 drug combinations; set-up: species or system CB17-SCID immunosuppressed mice; conditions: MM1S s.c. xenograft, CB17-SCID mice; for Tumor volume: i.p.: B 0.5, C 50, D 0.5 mg/kg days 1 and 4, S09 4 mg/kg each 12 hours
Experimental: CB17-SCID immunosuppressed mice (female) of 6-7 weeks old housed and handled in a pathogen-free zone. They were purchased from Janvier Labs (France). All experiments were carried out within the facilities of the University of Salamanca (Spain).
Control: Medium (PBS), intraperitoneally (i.p.), each 12 hours on days 1 to 5.
Treatment Groups: • Monotherapy: • Bortezomib 0.5 mg/kg i.p. on days 1 and 4. • Cyclophosphamide 50 mg/kg i.p. on days 1 and 4 • Dexamethasone 0.5 mg/kg i.p. on days 1 and 4 • S09 4 mg/kg i.p. each 12 hours on days 1 to 7 • Double combinations: • Bortezomib 0.5 mg/kg i.p. on days 1 and 4+S09 4 mg/kg i.p. each 12 hours on days 1 to 7 • Cyclophosphamide 50 mg/kg i.p. on days 1 and 4+S09 4 mg/kg i.p. each 12 hours on days 1 to 7 • Dexamethasone 0.5 mg/kg i.p. on days 1 and 4+S09 4 mg/kg i.p. each 12 hours on days 1 to 7 • Bortezomib 0.5 mg/kg i.p. on days 1 and 4+Cyclophosphamide 50 mg/kg i.p. on days 1 and 4 • Cyclophosphamide 50 mg/kg i.p. on days 1 and 4+Dexamethasone 0.5 mg/kg i.p. on days 1 and 4 • Dexamethasone 0.5 mg/kg i.p. on days 1 and 4+Bortezomib 0.5 mg/kg i.p. on days 1 and 4 • Triple combinations: • Bortezomib 0.5 mg/kg i.p. on days 1 and 4+Dexamethasone 0.5 mg/kg i.p. on days 1 and 4+S09 4 mg/kg i.p. each 12 hours on days 1 to 7 • Cyclophosphamide 50 mg/kg i.p. on days 1 and 4+Dexamethasone 0.5 mg/kg i.p. on days 1 and 4+S09 4 mg/kg i.p. each 12 hours on days 1 to 7
Mice were shaved on the right flank and anesthetized by inhalation to decrease their mobility, were inoculated subcutaneously with 3×10^6 MM1S cells in 50 μl of RPMI-1640 medium and 50 μl of Corning @ Matrigel® Basement Membrane Matrix. […] This was estimated by measurements with a caliper of the two tumor diameters and using the following formula of a spheroid: […]
Where a and b correspond to the longest and shortest diameter, respectively. Tumor volume was monitored three times per week.
The treatment endpoint was determined by the value of tumor volume in the mouse (a range of 2000-2200 mm3).

[1] = Growth inhibition activity, comparative test of Example 3 (cell lines not given); assay type: cell-based; conditions: Example 3, comparison with stapled versions
Text: Following the same protocol as the one disclosed in previous sections, the following activity data were obtained: […]

[2] = day of treatment 5, relative to day 1
[3] = day of treatment 10, relative to day 1
[4] = day of treatment 15, relative to day 1
[5] = day of treatment 24, relative to day 1

CC(C)C[C@H](NC(=O)[C@H](Cc1ccccc1)NC(=O)c1cnccn1)B(O)O [B, bortezomib]
normalized tumor volume percentage (%) (MM1S cells; day of treatment 1 (= 100)): 100.00%
Tumor volume (MM1S cells; day of treatment 1): 119.96 mm^3
normalized tumor volume percentage (%) (MM1S cells; [2]): 138.36%
Tumor volume (MM1S cells; day of treatment 5): 165.98 mm^3
normalized tumor volume percentage (%) (MM1S cells; [3]): 230.48%
Tumor volume (MM1S cells; day of treatment 10): 276.48 mm^3
normalized tumor volume percentage (%) (MM1S cells; [4]): 470.62%
Tumor volume (MM1S cells; day of treatment 15): 564.56 mm^3
normalized tumor volume percentage (%) (MM1S cells; [5]): 1410.31%
Tumor volume (MM1S cells; day of treatment 24): 1691.81 mm^3

O=P1(N(CCCl)CCCl)NCCCO1 (stereo not shown) [C, cyclophosphamide]
normalized tumor volume percentage (%) (MM1S cells; day of treatment 1 (= 100)): 100.00%
Tumor volume (MM1S cells; day of treatment 1): 120.75 mm^3
normalized tumor volume percentage (%) (MM1S cells; [2]): 156.92%
Tumor volume (MM1S cells; day of treatment 5): 189.48 mm^3
normalized tumor volume percentage (%) (MM1S cells; [3]): 247.48%
Tumor volume (MM1S cells; day of treatment 10): 298.83 mm^3
normalized tumor volume percentage (%) (MM1S cells; [4]): 552.57%
Tumor volume (MM1S cells; day of treatment 15): 667.23 mm^3
normalized tumor volume percentage (%) (MM1S cells; [5]): 1252.21%
Tumor volume (MM1S cells; day of treatment 24): 1512.04 mm^3

C[C@@H]1C[C@H]2[C@@H]3CCC4=CC(=O)C=C[C@]4(C)[C@@]3(F)[C@@H](O)C[C@]2(C)[C@@]1(O)C(=O)CO [D, dexamethasone]
normalized tumor volume percentage (%) (MM1S cells; day of treatment 1 (= 100)): 100.00%
Tumor volume (MM1S cells; day of treatment 1): 120.35 mm^3
normalized tumor volume percentage (%) (MM1S cells; [2]): 110.62%
Tumor volume (MM1S cells; day of treatment 5): 133.13 mm^3
normalized tumor volume percentage (%) (MM1S cells; [3]): 270.68%
Tumor volume (MM1S cells; day of treatment 10): 325.76 mm^3
normalized tumor volume percentage (%) (MM1S cells; [4]): 524.90%
Tumor volume (MM1S cells; day of treatment 15): 631.72 mm^3
normalized tumor volume percentage (%) (MM1S cells; [5]): 1206.21%
Tumor volume (MM1S cells; day of treatment 24): 1451.67 mm^3

Pro-Lys-Val-Val-11e-Leu-Lys-Lys-Ala-Thr-Ala-Tyr-Ile (PKVVILKKATAYI; wild type sequence) [SEQ ID NO: 11]
growth inhibition activity [1]: does not present growth inhibition activity
